These results are taken from US11192899B2 (MERCK PATENT GMBH, priority 2017, dated 2021).

Read-outs that look alike come from different tables or passages of the source. Bounds are passed on as bounds.

Format in all cases: cell-based
In one experiment the target is T1, human A2A receptor (Homo sapiens, UniProt P29274).
T1 construct: expressed in transfected cells; host or cells: HEK293
The experiment can be described thus: cAMP HTRF functional assay, recombinant HEK293 cells expressing human A2A receptor, agonist NECA. The protocol: (§1) The functional activities of human A2A, A2B, A1 and A3 receptors were determined by quantification of cAMP, being the second messenger for adenosine receptors.
(§2) Obtained raw data were normalized against the inhibitor control and the neural control (DMSO) and the normalized data were fitted using GeneData software.
For orientation: Time-resolved FRET reads energy transfer from a long-lived donor to a nearby acceptor.

In a further experiment the target is T2, human A1 receptor (Homo sapiens, UniProt P30542).
T2 construct: expressed in transfected cells; host or cells: CHO
T2 sequence (P30542 1-326): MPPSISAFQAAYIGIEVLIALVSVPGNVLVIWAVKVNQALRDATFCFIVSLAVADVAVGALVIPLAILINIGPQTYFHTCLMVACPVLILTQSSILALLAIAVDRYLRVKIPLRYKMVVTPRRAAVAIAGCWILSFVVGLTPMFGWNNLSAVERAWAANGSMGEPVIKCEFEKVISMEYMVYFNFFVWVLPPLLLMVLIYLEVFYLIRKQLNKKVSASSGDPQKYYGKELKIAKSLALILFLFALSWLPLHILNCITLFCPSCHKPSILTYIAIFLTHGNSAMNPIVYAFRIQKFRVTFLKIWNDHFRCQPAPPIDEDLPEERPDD
Nature of the experiment: cAMP HTRF functional assay, recombinant CHO cells expressing human A1 receptor, forskolin and agonist CPA. As for the experimental part:
as §1
For human A1 and A3 receptors, recombinant CHO cells, expressing either A1 or A3-receptor, were used. As both receptors couple to Gi proteins, the assay protocol was adapted:
Cells were seeded into 384-well plates, forskolin, test compounds and agonists (CPA for A1- and IB-MECA for A3-receptor) were added. After 30 min incubation, HTRF reagents (cAMP dynamic 2, Cis Bio) were added and the cellular cAMP levels were determined using the ENVISION (Perkin Elmer) plate reader.
as §2

The target of a further experiment is T3, A2B receptors (Homo sapiens, UniProt P29275).
T3 sequence (P29275 1-332): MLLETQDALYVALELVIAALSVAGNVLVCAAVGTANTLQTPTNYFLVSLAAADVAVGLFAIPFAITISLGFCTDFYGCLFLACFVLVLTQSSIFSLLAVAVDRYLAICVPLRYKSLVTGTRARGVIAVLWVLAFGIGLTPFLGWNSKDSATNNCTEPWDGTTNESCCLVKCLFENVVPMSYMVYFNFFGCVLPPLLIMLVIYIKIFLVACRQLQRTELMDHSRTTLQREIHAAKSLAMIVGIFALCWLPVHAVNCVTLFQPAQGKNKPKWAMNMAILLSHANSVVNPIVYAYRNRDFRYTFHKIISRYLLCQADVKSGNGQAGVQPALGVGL
The experiment can be described thus: cAMP HTRF functional assay, recombinant HEK293 cells expressing human A2B receptor, agonist NECA. Further details: expressed in transfected cells; host or cells: HEK293. As for the experimental part:
as §1, §2

T1 sequence (P29274 whole entry): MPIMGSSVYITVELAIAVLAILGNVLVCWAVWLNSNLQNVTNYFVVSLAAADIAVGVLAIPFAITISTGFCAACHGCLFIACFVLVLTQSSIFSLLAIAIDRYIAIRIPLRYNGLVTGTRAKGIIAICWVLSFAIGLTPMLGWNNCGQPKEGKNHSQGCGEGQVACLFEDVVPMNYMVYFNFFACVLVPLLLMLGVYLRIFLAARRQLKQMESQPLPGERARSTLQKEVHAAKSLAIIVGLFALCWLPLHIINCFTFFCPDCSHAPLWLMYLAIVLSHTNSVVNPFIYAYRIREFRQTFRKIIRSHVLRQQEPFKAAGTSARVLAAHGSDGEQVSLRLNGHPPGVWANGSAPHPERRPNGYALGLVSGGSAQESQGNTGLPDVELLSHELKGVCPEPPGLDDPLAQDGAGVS

As for “4-Hydroxy-4-methyl-piperidine-1-carboxylic acid (5-methoxy-8-phenyl-pyrido[3,4-b]pyrazin-3-yl)-amide [compound 15]”, on human A2A receptor (recombinant HEK293 cells, cAMP, agonist NECA), the IC50 (commonly the midpoint of a concentration-inhibition curve) was less than 100 nM.
Consider `COc1ccc(C2CCOCC2)c2ncc(NC(=O)N3CC4(C3)CS(=O)(=O)C4)nc12` [compound 18], for which the IC50 on human A2A receptor was less than 100 nM; on human A1 receptor, more than 1000 nM.
For the compound `COc1ccc(-c2cccc(F)c2)c2ncc(NC(=O)N3CCC(C)(O)CC3)nc12` [compound 62], the IC50 was less than 100 nM at human A2A receptor, less than 1000 nM on human A1 receptor and more than 1000 nM on A2B receptors.
With `COc1ccc(C2CCOCC2)c2ncc(NC(=O)c3cnn(C)c3)nc12` [compound 68], the IC50 at human A2A receptor is less than 10 nM; on human A1 receptor it was more than 1000 nM; on A2B receptors, more than 1000 nM.
For the compound `COc1ccc(C2CCOCC2)c2ncc(NC(=O)c3cnc(C)s3)nc12` [compound 78], the figures for the IC50 on human A2A receptor, at human A1 receptor and on A2B receptors were less than 10 nM, more than 1000 nM and less than 1000 nM, respectively.
On the same counts, the results for `C#CCC1(O)CCN(C(=O)Nc2cnc3c(C4CCOCC4)cnc(OC)c3n2)CC1` [compound 103, 4-Hydroxy-4-prop-2-ynyl-piperidine-1-carboxylic acid [5-methoxy-8-(tetrahydro-pyran-4-yl)-pyrido[3,4-b]pyrazin-3-yl]-amide] are less than 10 nM, more than 1000 nM and more than 1000 nM.
On to `COc1ncc(C2CCOCC2)c2ncc(NC(=O)N3CCC(C)(CO)CC3)nc12` [compound 104, 4-Hydroxymethyl-4-methyl-piperidine-1-carboxylic acid [5-methoxy-8-(tetrahydro-pyran-4-yl)-pyrido[3,4-b]pyrazin-3-yl]-amide], for which the IC50 on human A2A receptor was less than 10 nM.
Regarding `CCCCc1ccc(OC)c2nc(NC(=O)N3CCC(C)(O)CC3)cnc12` [compound 108, N-(5-butyl-8-methoxyquinoxalin-2-yl)-4-hydroxy-4-methylpiperidine-1-carboxamide], the IC50 is less than 100 nM at human A2A receptor, more than 1000 nM on human A1 receptor and more than 1000 nM on A2B receptors.
Take `COc1ccc(C2=CCOCC2)c2ncc(NC(=O)N3CCC(C)(O)CC3)nc12` [compound 109, N-[5-(3,6-dihydro-2H-pyran-4-yl)-8-methoxyquinoxalin-2-yl]-4-hydroxy-4-methylpiperidine-1-carboxamide]: the results for the IC50 on human A2A receptor, at human A1 receptor and at A2B receptors were less than 10 nM, less than 1000 nM and more than 1000 nM, respectively.
On to `COc1ccc(-c2cccnc2)c2nc(NC(=O)N3CCC(C)(O)CC3)cnc12` [compound 112, 4-hydroxy-N-[5-methoxy-8-(pyridin-3-yl)quinoxalin-2-yl]-4-methylpiperidine-1-carboxamide], for which the IC50 at human A2A receptor was less than 100 nM; on human A1 receptor it was more than 1000 nM.
Turning to `COc1ccc(-c2cnn(Cc3ccccn3)c2)c2ncc(NC(=O)N3CCC(C)(O)CC3)nc12` [compound 114, 4-hydroxy-N-(8-methoxy-5-{1-[(pyridin-2-yl)methyl]-1H-pyrazol-4-yl}quinoxalin-2-yl)-4-methylpiperidine-1-carboxamide], the IC50 on human A2A receptor is less than 100 nM; at human A1 receptor it was less than 1000 nM; on A2B receptors, more than 1000 nM.
Regarding `CNC(=O)c1cc(-c2ccc(OC)c3nc(NC(=O)N4CCC(C)(O)CC4)cnc23)ccn1` [compound 115, 4-{2-[(4-hydroxy-4-methylpiperidine-1-carbonyl)amino]-8-methoxyquinoxalin-5-yl}-N-methylpyridine-2-carboxamide], on human A2A receptor, the half-inhibitory concentration (IC50) was less than 100 nM.
For the compound `COc1ccc(-c2cnn(C3CN(C(=O)OC(C)(C)C)C3)c2)c2ncc(NC(=O)N3CCC(C)(O)CC3)nc12` [compound 116, tert-butyl 3-(4-{2-[(4-hydroxy-4-methylpiperidine-1-carbonyl)amino]-8-methoxyquinoxalin-5-yl}-1H-pyrazol-1-yl)azetidine-1-carboxylate], the IC50 is less than 100 nM on human A2A receptor, less than 1000 nM on human A1 receptor and more than 1000 nM on A2B receptors.
On the same counts, the results for `COCCOc1cccc(-c2ccc(OC)c3nc(NC(=O)N4CCC(C)(O)CC4)cnc23)c1` [compound 117, 4-hydroxy-N-{8-methoxy-5-[3-(2-methoxyethoxy)phenyl]quinoxalin-2-yl}-4-methylpiperidine-1-carboxamide] are less than 100 nM, more than 1000 nM and more than 1000 nM.
In the same order, the values of `COCCOCCn1cc(-c2ccc(OC)c3nc(NC(=O)N4CCC(C)(O)CC4)cnc23)cn1` [compound 119, 4-hydroxy-N-(8-methoxy-5-{1-[2-(2-methoxyethoxy)ethyl]-1H-pyrazol-4-yl}quinoxalin-2-yl)-4-methylpiperidine-1-carboxamide] are less than 100 nM, more than 1000 nM and more than 1000 nM.
In the case of `COc1ccc(-c2cccc(F)c2F)c2ncc(NC(=O)c3cnc(C)o3)nc12` [compound 125, N-[5-(2,3-difluorophenyl)-8-methoxyquinoxalin-2-yl]-2-methyl-1,3-oxazole-5-carboxamide], the IC50 was less than 100 nM at human A2A receptor and less than 1000 nM at human A1 receptor.
With `COc1ccc(-c2ccccc2F)c2ncc(NC(=O)c3cnc(C)o3)nc12` [compound 129, N-[5-(2-fluorophenyl)-8-methoxyquinoxalin-2-yl]-2-methyl-1,3-oxazole-5-carboxamide], the values for the IC50 on human A2A receptor and on A2B receptors were less than 10 nM and less than 100 nM, respectively.
Take `COc1ccc(C2CCOCC2)c2ncc(NC(=O)c3cnc(C)o3)nc12` [compound 130, N-[8-methoxy-5-(oxan-4-yl)quinoxalin-2-yl]-2-methyl-1,3-oxazole-5-carboxamide]: the IC50 at human A2A receptor is less than 10 nM; at human A1 receptor, more than 1000 nM; at A2B receptors, less than 100 nM.
With `COc1ccc(C2=CCOCC2)c2ncc(NC(=O)c3cnc(C)o3)nc12` [compound 132, N-[5-(3,6-dihydro-2H-pyran-4-yl)-8-methoxyquinoxalin-2-yl]-2-methyl-1,3-oxazole-5-carboxamide], the IC50 at human A2A receptor is less than 10 nM; at human A1 receptor, less than 1000 nM; on A2B receptors, less than 100 nM.
On the same counts, the results for `COc1ccc(C2=CCOCC2)c2ncc(NC(=O)c3cnn(C)c3)nc12` [compound 135, N-[5-(3,6-dihydro-2H-pyran-4-yl)-8-methoxyquinoxalin-2-yl]-1-methyl-1H-pyrazole-4-carboxamide] are less than 10 nM, less than 100 nM and less than 100 nM.
In the same order, the values of `COc1ccc(C2=CCOCC2)c2ncc(NC(=O)C3(N)CC3)nc12` [compound 137, 1-amino-N-[5-(3,6-dihydro-2H-pyran-4-yl)-8-methoxyquinoxalin-2-yl]cyclopropane-1-carboxamide] are less than 10 nM, less than 1000 nM and more than 1000 nM.
Regarding `COc1ccc(C2=CCOCC2)c2ncc(NC(=O)C3(C(=O)N(C)C)CC3)nc12` [compound 144, N′1-[5-(3,6-dihydro-2H-pyran-4-yl)-8-methoxyquinoxalin-2-yl]-N1,N1-dimethylcyclopropane-1,1-dicarboxamide], the IC50 is less than 100 nM on human A2A receptor and more than 1000 nM on human A1 receptor.
In the same order, the values of `COc1ccc(C2=CCOCC2)c2ncc(NC(=O)C3(CN(C)C)CC3)nc12` [compound 145, N-[5-(3,6-dihydro-2H-pyran-4-yl)-8-methoxyquinoxalin-2-yl]-1-[(dimethylamino)methyl]cyclopropane-1-carboxamide] are less than 100 nM and more than 1000 nM.
In the same order, the values of `COc1ccc(C2=CCOCC2)c2ncc(NC(=O)c3nnc(C)s3)nc12` [compound 146, N-[5-(3,6-dihydro-2H-pyran-4-yl)-8-methoxyquinoxalin-2-yl]-5-methyl-1,3,4-thiadiazole-2-carboxamide] are less than 100 nM and more than 1000 nM.
In the same order, the values of `COc1ccc(-c2cnn(C(F)F)c2)c2ncc(NC(=O)N3CCC(C)(O)CC3)nc12` [compound 158, N-{5-[1-(difluoromethyl)-1H-pyrazol-4-yl]-8-methoxyquinoxalin-2-yl}-4-hydroxy-4-methylpiperidine-1-carboxamide] are less than 100 nM and more than 1000 nM.
As to `COc1ccc(N2CCCOCC2)c2ncc(NC(=O)C3CC3)nc12` [compound 161, N-[8-methoxy-5-(1,4-oxazepan-4-yl)quinoxalin-2-yl]cyclopropanecarboxamide], the IC50 is less than 100 nM at human A2A receptor and more than 1000 nM on human A1 receptor.
